# Test system: Botrytis cinerea
# Assay: Inhibition of growth of Botrytis cinerea by artificial VOC mixture and pure compounds, bi compartmentalized Petri dishes (vapour exposure)
# Assay type: cell-based
# Details: pure compounds at their relative proportion of 0.70 μl/mL mixture (ethanol 0.11, isobutyl acetate 0.14, isoamyl acetate 0.13, α-bisabolol 0.10 μl/mL head space); after four days
# Procedure: For this, bi compartmentalized Petri dishes (94×16 mm) (Greiner, Germany) coated with culture medium were used, leaving a head space of 60 mL. One compartment was inoculated with mycelium (3 mm radius disk) of the saprophytic fungus (S. commune). The other compartment was inoculated with fresh mycelium of B. cinerea. In this bioassay there was no physical contact between the two fungi. The control treatment consisted of placing the mycelium of B. cinerea in only one of the compartments. All experimental units (Petri dishes) were covered and sealed with Parafilm M®, and incubated at 25° C. in the dark until the growth of any fungi (treatment and control) reached the edge of the central wall of the Petri dish. The mycelial growth was measured using a magnifying glass (Japan Optical), and data were expressed as percent of inhibition relative to control. Each treatment was repeated 10 times.
# The inhibitory power of pure compounds and of a mixture based on their percent ratio were assessed. The methodology was similar to that detailed above to assess the antifungal activity of saprophytic fungus. The minimum inhibitory concentration (MIC) and lethal dose 50% (LD50) were calculated by interpolation according to the polynomial equation (Y=−194.565812×2+318.001954×−25.561441; r2=0.982) (See FIG. 2).
# 6 formulations were tested at laboratory level: […]
# Formulation 2: 0.11 μl ethanol per 1 mL of head space volume (airspace).
# Formulation 3: 0.14 μl of isobutyl acetate per 1 mL of head space volume (airspace).
# Formulation 4: 0.13 μl of isoamyl acetate per 1 mL of head space volume (airspace).
# Formulation 5: 0.10 μl of α-bisabolol per 1 mL of head space volume (airspace).
# The effect of each formulation for inhibiting the growth of B. cinerea was tested using bi compartmentalized dishes, according to the above methodology.
row,Compound,percent of inhibition of Botrytis cinerea growth
1,CC(=O)OCCC(C)C [isoamyl acetate],77%
2,CC(=O)OCC(C)C [isobutyl acetate],47%
3,α-bisabolol,did not inhibit

# Reference: patent US9974301B2, “Fungicidal composition for controlling phytopathogenic diseases, comprising a mixture of the volatile compounds ethanol, 3-methylbutanol, isobutyl acetate, isoamyl acetate and alpha-bisabolol; and the use thereof for inhibiting the growth of the pathogenic fungus botrytis cinerea” (UNIVERSIDAD DE LA FRONTERA, priority 2013, dated 2018)
